What was measured:
[1] = target: T1, MHC-II DRB1*03:01 (Homo sapiens, UniProt P01903+P01911, A100K/A102G/A103R/A169T/F55Y/I96L/K41T/L162R/M171V/P40S/Q125H/Q178H/Q39Y/R42S/S66N/T106N/T262R/W38E/Y61H); test: Cell-free REVEAL class II binding assay; conditions: signal of test peptide as percentage of allele-specific positive control peptide, fluorescence, conformation-specific monoclonal antibody
Procedure, shortened: (§1)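 Read-out: fluorescence from a monoclonal antibody recognising natively folded peptide–MHC-II complex. Score = test-peptide signal as % of the known T-cell epitope positive control for that allele. Intermediate control peptide included in each set.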

[2] = target: T2, MHC-II DRB1*07:01 (Homo sapiens, UniProt P01903+P01911, A100R/A102G/A103Q/D57E/D86V/E43K/F76Y/K127E/L162R/M171V/P40G/Q125H/Q99D/R33Q/R42Y/R54Q/S133A/S66F/T210M/V115G/Y107V/Y59L/Y89S); test: Cell-free REVEAL class II binding assay; conditions: signal of test peptide as percentage of allele-specific positive control peptide, fluorescence, conformation-specific monoclonal antibody
Procedure, shortened: as §1

[3] = target: T3, MHC-II DRB1*15:03 (Homo sapiens, UniProt P01903+P01911, Y59H); test: Cell-free REVEAL class II binding assay; conditions: signal of test peptide as percentage of allele-specific positive control peptide, fluorescence, conformation-specific monoclonal antibody
T3 construct: purchased ProImmune
Procedure, shortened: as §1

[4] = target: T4, MHC-II DRB1*15:01 (Homo sapiens, UniProt P01903+P01911); test: Cell-free REVEAL class II binding assay; conditions: signal of test peptide as percentage of allele-specific positive control peptide, fluorescence, conformation-specific monoclonal antibody
T4 construct: purchased ProImmune
Procedure, shortened: as §1

[5] = target: T5, MHC-II DRB1*04:01 (Homo sapiens, UniProt P01903+P01911, A100K/A169T/F76Y/I96L/K127E/L162R/M171V/N62H/P40V/Q125Y/R42H/S133A/S149N/S66Y/V115G/V209L/W38E); test: Cell-free REVEAL class II binding assay; conditions: signal of test peptide as percentage of allele-specific positive control peptide, fluorescence, conformation-specific monoclonal antibody
Procedure, shortened: as §1

[6] = target: T6, MHC-II DRB1*11:01 (Homo sapiens, UniProt P01903+P01911, A100R/A169T/A87E/I96F/K41T/L162R/M171V/P40S/Q125H/Q178H/Q39Y/Q99D/R42S/S66Y/T262R/V115G/W38E); test: Cell-free REVEAL class II binding assay; conditions: signal of test peptide as percentage of allele-specific positive control peptide, fluorescence, conformation-specific monoclonal antibody
Procedure, shortened: as §1

[7] = target: T1, MHC-II DRB1*03:01; test: Cell-free REVEAL class II stability assay; conditions: half-life of peptide-MHC-II complex (h, capped at 120) x Binding Score / 100, conformational ELISA
Procedure, shortened: (§2)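 Peptide–MHC-II complex formation followed over 96 hr at 10°C, with samples snap-frozen at set time points and assembled complex detected by conformational anti-HLA ELISA. On- and off-rates come from one-phase association/dissociation fits; half-lives derive from rate constants, and stability score = half-life × Binding Score / 100.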

[8] = target: T2, MHC-II DRB1*07:01; test: Cell-free REVEAL class II stability assay; conditions: half-life of peptide-MHC-II complex (h, capped at 120) x Binding Score / 100, conformational ELISA
Procedure, shortened: as §2

[9] = target: T3, MHC-II DRB1*15:03; test: Cell-free REVEAL class II stability assay; conditions: half-life of peptide-MHC-II complex (h, capped at 120) x Binding Score / 100, conformational ELISA
Procedure, shortened: as §2

[10] = target: T4, MHC-II DRB1*15:01; test: Cell-free REVEAL class II stability assay; conditions: half-life of peptide-MHC-II complex (h, capped at 120) x Binding Score / 100, conformational ELISA
Procedure, shortened: as §2

[11] = target: T5, MHC-II DRB1*04:01; test: Cell-free REVEAL class II stability assay; conditions: half-life of peptide-MHC-II complex (h, capped at 120) x Binding Score / 100, conformational ELISA
Procedure, shortened: as §2

[12] = target: T6, MHC-II DRB1*11:01; test: Cell-free REVEAL class II stability assay; conditions: half-life of peptide-MHC-II complex (h, capped at 120) x Binding Score / 100, conformational ELISA
Procedure, shortened: as §2

T3 sequence (P01903 26-254, other chains not shown): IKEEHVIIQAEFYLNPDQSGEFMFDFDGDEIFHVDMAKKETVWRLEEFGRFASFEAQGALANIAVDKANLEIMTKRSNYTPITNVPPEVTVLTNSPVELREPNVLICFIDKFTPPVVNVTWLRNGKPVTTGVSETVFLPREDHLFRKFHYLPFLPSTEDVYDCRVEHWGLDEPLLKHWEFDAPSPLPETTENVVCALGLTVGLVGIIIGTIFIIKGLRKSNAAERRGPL
T6 sequence (P01903 26-254 limits assumed, other chains not shown): as the sequence (P01903 26-254, other chains not shown) above
T1 sequence (P01903 26-254 limits assumed, other chains not shown): as the sequence (P01903 26-254, other chains not shown) above

Row | Binding Score [1] [%] | Binding Score [2] [%] | Binding Score [3] [%] | Binding Score [4] [%] | Binding Score [5] [%] | Binding Score [6] [%] | Stability Index [7] | Stability Index [8] | Stability Index [9] | Stability Index [10] | Stability Index [11] | Stability Index [12] | Sequence
1 | 1.3 | 0.2 | 0.7 | 18.1 | 1.3 | 0.3 | 0.1 | 0.0 | 0.0 | 1.4 | 0.1 | 0.0 | SLHAVGVSYWKASEG [synthetic wild type FVIII 15 mer peptide]
2 | 4.8 | 0.0 | 14.6 | 1455.4 | 38.1 | 100.8 | 0.5 | 0.0 | 16.4 | 1746.5 | 11.8 | 27.9 | SQFIIMYSLDGKKWQ [synthetic wild type FVIII 15 mer peptide]
3 | 0.1 | 0.0 | 0.2 | 0.1 | 0.2 | 12.0 | 0.0 | 0.0 | 0.1 | 0.1 | 0.0 | 0.4 | SRPYNIYPHGITDVR [synthetic wild type FVIII 15 mer peptide, region of ns-SNP R484H]
4 | 1.7 | 0.0 | 0.0 | 0.0 | 0.4 | 0.1 | 0.1 | 0.0 | 0.0 | 0.0 | 0.0 | 0.0 | SYDGAYAPVLQDFRS [synthetic wild type FVIII 15 mer peptide, region of ns-SNP D1241E]
5 | 0.0 | 0.0 | 0.0 | 0.0 | 1.5 | 2.8 | 0.0 | 0.0 | 0.0 | 0.0 | 0.2 | 0.0 | SYWKASEGAEYDDQT [synthetic wild type FVIII 15 mer peptide]
6 | 12.6 | 0.0 | 26.8 | 37.9 | 0.8 | 23.1 | 2.4 | 0.0 | 1.6 | 45.5 | 0.1 | 0.8 | TKSDPRCLTRYYSSF [synthetic wild type FVIII 15 mer peptide]
7 | 0.0 | 0.0 | 0.4 | 41.4 | 7.3 | 0.1 | 0.0 | 0.0 | 0.0 | 2.3 | 0.6 | 0.0 | TLTLFPFSGETVFMS [synthetic wild type FVIII 15 mer peptide]
8 | 0.0 | 34.0 | 25.4 | 819.2 | 8.2 | 49.4 | 0.0 | 40.8 | 30.5 | 983.1 | 0.9 | 5.3 | TRYLRIHPQSWVHQI [synthetic wild type FVIII 15 mer peptide]
9 | 0.2 | 0.0 | 0.0 | 0.0 | 0.2 | 0.0 | 0.0 | 0.0 | 0.0 | 0.0 | 0.0 | 0.0 | TVEDGPTKSDPRCLT [synthetic wild type FVIII 15 mer peptide]
10 | 2.7 | 0.0 | 2.2 | 95.8 | 1.2 | 0.2 | 0.4 | 0.0 | 0.1 | 7.8 | 0.1 | 0.0 | VVNSLDPPLLTRYLR [synthetic wild type FVIII 15 mer peptide]
11 | 7.9 | 17.2 | 234.7 | 1195.7 | 59.3 | 174.3 | 2.4 | 20.6 | 281.7 | 1434.9 | 61.0 | 30.2 | YIRLHPTHYSIRSTL [synthetic wild type FVIII 15 mer peptide]
